# Values joined by “and” are separate entries in the source; they are usually repeats but may differ in a detail not shown here. Identical values can stand only once. “Also recorded” adds a separate entry of the source. Counter-ions that a name gives are not always drawn.
# Test system: scopolamine-treated cynomolgus monkeys
# Experiment: Scopolamine-induced impairment of vsPAL task performance, treatment + scopolamine
# Type: in vivo, cynomolgus monkeys (Macaca Fasicularis)
# Description: Doses cited refer to the free base form of the compounds. […] All drugs were administered intramuscularly (i.m.) in a dosing volume of 0.1–0.2 ml/kg.
# On days when compound testing occurred, approximately half the cohort received one dose and the remainder another dose of the same compound and therefore dose order was staggered between animals. With the exception of EVP-6124, all other compounds were tested in a single dose response study.
# Cohen’s d values of >0.2, >0.5 and >0.8 are described using the conventions of small, medium, and large effects, respectively.
# [1] = 0.3 mg/kg + scopolamine vs vehicle+scopolamine, eventual accuracy, 4-stimuli
# [2] = Donepezil 0.03 mg/kg + Scopolamine, group MEAN of 6 animals
# [3] = Donepezil 0.03 mg/kg + Scopolamine, individual animals
# [4] = Donepezil 0.1 mg/kg + Scopolamine, group MEAN of 6 animals
# [5] = Donepezil 0.1 mg/kg + Scopolamine, individual animals
# [6] = Donepezil 0.3 mg/kg + Scopolamine, group MEAN (one animal without value)
# [7] = Donepezil 0.3 mg/kg + Scopolamine, group MEAN of 6 animals
# [8] = Donepezil 0.3 mg/kg + Scopolamine, individual animals
# [9] = all doses of the study, for EVP-6124 study (1)
# [10] = compound 0.03 mg/kg i.m. + Scopolamine
# [11] = compound 0.10 mg/kg i.m. + Scopolamine
# [12] = compound 0.30 mg/kg i.m. + Scopolamine
smiles,measurement,setting,value
"COc1cc2c(cc1OC)C(=O)C(CC1CCN(Cc3ccccc3)CC1)C2 (centres unmarked) [Donepezil, Donepezil hydrochloride]",Cohen's d,[1],1.2 and 1.199
same,effect r,[1],0.514
same,effect on scopolamine-induced impairment of eventual accuracy,"0.3 mg/kg i.m., 4-stimuli condition",significantly ameliorated; also recorded: significantly reversed
same,mean (cohen's d calculations),"0.3 mpk + scop, eventual correct, 4-stimuli condition",68.7
same,% Completion,[2],79.4%
same,Average Response Latency,[2],2339.5 ms
same,"Eventual Correct, 2 Stimuli",[2],100.0%
same,"Eventual Correct, 3 Stimuli",[2],86.7%
same,"Eventual Correct, 4 Stimuli",[2],42.1%
same,"Eventual Correct, Overall Mean % Correct",[2],76.2%
same,"Initial Correct, 3 Stimuli",[2],58.3%
same,"Initial Correct, 4 Stimuli",[2],16.7%
same,"Initial Correct, Overall Mean % Correct",[2],52.2%
same,"Initial correct, 2 Stimuli",[2],81.7%
same,% Completion,[3],76.8% and 57.3% and 85.4% and 84.6% and 100.0% and 72.4%
same,Average Response Latency,[3],2796.9 ms and 1893.7 ms and 2469.8 ms and 2357.9 ms and 2353.0 ms
same,"Eventual Correct, 2 Stimuli",[3],100.0%
same,"Eventual Correct, 3 Stimuli",[3],90.0% and 80.0% and 50.0% and 100.0%
same,"Eventual Correct, 4 Stimuli",[3],30.0% and 12.5% and 0.0% and 80.0% and 70.0% and 60.0%
same,"Eventual Correct, Overall Mean % Correct",[3],73.3% and 64.2% and 50.0% and 93.3% and 90.0% and 86.7%
same,"Initial Correct, 3 Stimuli",[3],50.0% and 70.0% and 40.0% and 60.0% and 90.0%
same,"Initial Correct, 4 Stimuli",[3],10.0% and 0.0% and 30.0%
same,"Initial Correct, Overall Mean % Correct",[3],50.0% and 56.7% and 36.7% and 46.7% and 73.3%
same,"Initial correct, 2 Stimuli",[3],90.0% and 100.0% and 70.0% and 60.0%
same,% Completion,[4],80.6%
same,Average Response Latency,[4],2361.5 ms
same,"Eventual Correct, 2 Stimuli",[4],98.3%
same,"Eventual Correct, 3 Stimuli",[4],90.0%
same,"Eventual Correct, 4 Stimuli",[4],50.0%
same,"Eventual Correct, Overall Mean % Correct",[4],79.4%
same,"Initial Correct, 3 Stimuli",[4],63.3%
same,"Initial Correct, 4 Stimuli",[4],30.0%
same,"Initial Correct, Overall Mean % Correct",[4],57.2%
same,"Initial correct, 2 Stimuli",[4],78.3%
same,% Completion,[5],70.7% and 75.0% and 77.6% and 100.0% and 96.4% and 63.8%
same,Average Response Latency,[5],2305.7 ms and 2751.0 ms and 1701.8 ms and 2272.3 ms and 2849.3 ms and 2289.1 ms
same,"Eventual Correct, 2 Stimuli",[5],90.0% and 100.0%
same,"Eventual Correct, 3 Stimuli",[5],60.0% and 90.0% and 100.0%
same,"Eventual Correct, 4 Stimuli",[5],0.0% and 90.0% and 50.0% and 60.0%
same,"Eventual Correct, Overall Mean % Correct",[5],50.0% and 93.3% and 80.0% and 83.3% and 86.7%
same,"Initial Correct, 3 Stimuli",[5],90.0% and 80.0% and 40.0% and 20.0% and 70.0%
same,"Initial Correct, 4 Stimuli",[5],50.0% and 30.0% and 0.0% and 40.0%
same,"Initial Correct, Overall Mean % Correct",[5],76.7% and 70.0% and 36.7% and 63.3% and 33.3%
same,"Initial correct, 2 Stimuli",[5],90.0% and 100.0% and 70.0% and 50.0%
same,"Eventual Correct, 4 Stimuli",[6],68.7%
same,"Initial Correct, 4 Stimuli",[6],28.2%
same,Average Response Latency,[7],2371.0 ms
same,"Eventual Correct, 2 Stimuli",[7],98.3%
same,"Eventual Correct, 3 Stimuli",[7],85.0%
same,"Eventual Correct, Overall Mean % Correct",[7],84.9%
same,"Initial Correct, 3 Stimuli",[7],63.3%
same,"Initial Correct, Overall Mean % Correct",[7],58.4%
same,"Initial correct, 2 Stimuli",[7],80.0%
same,% Completion,[8],41.3% and 69.1% and 98.4% and 98.6% and 98.3% and 61.0%
same,Average Response Latency,[8],2379.3 ms and 1959.4 ms and 2184.7 ms and 2330.5 ms and 2840.5 ms and 2531.9 ms
same,"Eventual Correct, 2 Stimuli",[8],100.0% and 90.0%
same,"Eventual Correct, 3 Stimuli",[8],70.0% and 90.0% and 100.0%
same,"Eventual Correct, 4 Stimuli",[8],60.0% and 80.0% and 90.0% and 33.3%
same,"Eventual Correct, Overall Mean % Correct",[8],85.0% and 83.3% and 93.3% and 90.0% and 86.7% and 71.1%
same,"Initial Correct, 3 Stimuli",[8],50.0% and 80.0% and 70.0% and 60.0%
same,"Initial Correct, 4 Stimuli",[8],20.0% and 50.0% and 40.0% and 11.1%
same,"Initial Correct, Overall Mean % Correct",[8],50.0% and 66.7% and 53.3% and 63.3% and 50.4%
same,"Initial correct, 2 Stimuli",[8],50.0% and 100.0% and 80.0% and 90.0%
same,"Holm-Sidak Post-Hoc, Treatment+Scopolamine differs from Vehicle+Scopolamine: percent correct on initial attempt, 3-stimuli",all doses of the study,n.s.
same,"Holm-Sidak Post-Hoc, Treatment+Scopolamine differs from Vehicle+Scopolamine: Choice Response Latency",[9],n.s.
same,"Holm-Sidak Post-Hoc, Treatment+Scopolamine differs from Vehicle+Scopolamine: Percent Task Completed",[9],n.s.
same,"Holm-Sidak Post-Hoc, Treatment+Scopolamine differs from Vehicle+Scopolamine: percent correct on initial attempt, 2-stimuli",[9],n.s.
same,"Holm-Sidak Post-Hoc, Treatment+Scopolamine differs from Vehicle+Scopolamine: percent correct on initial attempt, 4 stimuli",[9],n.s.
same,"Percent Correct on Initial Attempt (SEM), 2 stimuli",[10],81.7% (7.0%)
same,"Percent Correct on Initial Attempt (SEM), 3 stimuli",[10],58.3% (7.9%)
same,"Percent Correct on Initial Attempt (SEM), 4 stimuli",[10],16.7% (6.1%)
same,"Percent Correct on Initial Attempt (SEM), 2 stimuli",[11],78.3% (7.5%)
same,"Percent Correct on Initial Attempt (SEM), 3 stimuli",[11],63.3% (11.2%)
same,"Percent Correct on Initial Attempt (SEM), 4 stimuli",[11],30.0% (6.8%)
same,"Percent Correct on Initial Attempt (SEM), 2 stimuli",[12],80.0% (6.8%)
same,"Percent Correct on Initial Attempt (SEM), 3 stimuli",[12],63.3% (4.2%)
same,"Percent Correct on Initial Attempt (SEM), 4 stimuli",[12],28.2% (7.2%)
